In publication PMC11435220, “Anticancer Activity of Imidazolyl Gold(I/III) Compounds in Non-Small Cell Lung Cancer Cell Lines” (Pharmaceuticals, 2024):

How the values were obtained:
[1] = test system: H522; test: MTT viability assay, H522; format: cell-based, human; conditions: mean ± span, 48 h treatment, cell line without KRAS mutation
Experimental: (§1) NSCLC cell lines were obtained from the Hamon Center for Therapeutic Oncology Research (UT Southwestern Medical Center). IMR-90 human lung fibroblasts were from ATCC (CC-186). All cell lines were maintained and treated in RPMI medium (Cytiva (Shanghai, China), #SH30027), supplemented with 10% heat-inactivated FBS (Millipore Sigma (Darmstadt, Germany), F0394).
(§2) 5000–10,000 cells/0.1 mL/well were seeded in 96-well plates to achieve 70% confluence after 24 h. All drug stock solutions were prepared fresh in DMSO at a concentration of 10 mM. The day after cell plating, we added 0.1 mL of medium containing the appropriate drug dilutions. After 48 h of treatment, 10 μL of MTT solution (5 mg/mL) was added to each well. After 4 h incubation, the medium was aspirated, and the formazan salts dissolved in 200 μL DMSO/well for 10 min at 37 °C. The absorbance was read at 570 nm (OD 570 nm). Data are represented as mean ± SD of two independent experiments.
(§3) Statistical and data analysis was performed using GraphPad Prism (v10). IC50 values were calculated using a three-parameter non-linear regression model with log(inhibitor) vs. response. For the TxrR activity statistics, the groups were compared using a two-way ANOVA followed by Dunnett’s multiple comparisons with alpha = 0.05. The correlation between IC50 values and TxrR activity was achieved using Pearson correlation with alpha = 0.05.

[2] = test system: H661; test: MTT viability assay, H661; format: cell-based, human; conditions: mean ± span, 48 h treatment, cell line without KRAS mutation
Experimental: as §1, §2, §3

[3] = test system: H1993; test: MTT viability assay, H1993; format: cell-based, human; conditions: mean ± span, 48 h treatment, cell line without KRAS mutation
Experimental: as §1, §2, §3

[4] = test system: H157; test: MTT viability assay, H157; format: cell-based, human; conditions: mean ± span, 48 h treatment, cell line with KRAS mutation
Experimental: as §1, §2, §3

[5] = test system: A549; test: MTT viability assay, A549; format: cell-based, human; conditions: mean ± span, 48 h treatment, cell line with KRAS mutation
Experimental: as §1, §2, §3

[6] = test system: H460; test: MTT viability assay, H460; format: cell-based, human; conditions: mean ± span, 48 h treatment, cell line with KRAS mutation
Experimental: as §1, §2, §3

[7] = test system: H1792; test: MTT viability assay, H1792; format: cell-based, human; conditions: mean ± span, 48 h treatment, cell line with KRAS mutation
Experimental: as §1, §2, §3

[8] = test system: human NSCLC cell lines without KRAS mutations; test: MTT assay, average across NSCLC cell lines without KRAS mutations; format: cell-based; conditions: average across cell lines without KRAS mutations (H522, H661, H1395, H1993), 48 h, read-out: IC50 * averaged values
Experimental: as §1, §2, §3

[9] = test system: TrxR in H522 cell lysates; test: Thioredoxin reductase activity in lysates of treated H522 cells; format: cell-based, human; conditions: for Mean Diff. TrxR activity vs. veh: H522 lysate, 24 h treatment at 5 μM
Experimental: (§4) The enzymatic activity of TrxR in the A549 and H522 cell lysates was measured using the TrxR assay Kit (Abcam ab83463) following the manufacturer’s instructions. This kit is based on the TxrR-mediated reduction of the colorless DTNB into TNB2—(yellow). Briefly, cells were plated to reach 70% confluence on a 100-mm dish in one day. They were treated with 5 μM of the gold compounds or the equivalent quantity of DMSO for 24 h. Then, cells were washed in PBS 1X, detached, and lysed in 100 μL of cold TrxR assay buffer supplemented with the Proteinase Inhibitor Cocktail. 20 μg and 40 μg of total proteins were used for the A549 and the H522, respectively. The DTNB substrate was added to samples with or without TrxR inhibitor (provided with the kit) in 96-well plates. The OD412 was measured soon after the substrate addition (A1) and then after 25, 60, 90, and 110 min (An) at 25 °C using a FLUOstar Omega Microplate Reader (BGM Labtech, Chicago, IL, USA). Data analysis was performed following the manufacturer’s instructions. The OD of TNB2, generated by TrxR in every condition, is:ΔA412 nm = (AnAB − AnINH) − (AB − A1INH) where AB is the assay buffer, and INH is the inhibitor. The TrxR activity is:(2) ΔB/Tn−T1×mg of protein lysate×sample dilution factor=(nmol/min)/mg=mU/mg where ΔB is the TNB amount calculated applying ΔA412 nm to TNB standard curve (in nmol), T1 is the time of the first reading (A1AB, and A1INH) (in min), Tn is the time of the second reading (AnAB and AnINH) (in min). The residual TxrR activity (%) was calculated by normalizing the TxrR activity for each compound with the matching vehicle values at every n time point.
as §3

[10] = test system: TrxR in A549 cell lysates; test: Thioredoxin reductase activity in lysates of treated A549 cells; format: cell-based, human; conditions: for Mean Diff. TrxR activity vs. veh: A549 lysate, 24 h treatment at 5 μM
Experimental: as §4, §3

[11] = Solution stability by UV-visible spectra over time; format: physicochemical; conditions: UV-visible spectra over time; DMSO, methanol, PBS buffered solutions
Experimental: Stability studies were led by acquiring UV−visible spectra of 100 µM DMSO or methanol solutions of compounds 1∓8 over time (Figures S19–S29 in Supplementary Materials). […] The stability of NHC-AuX3 complexes (with X = Cl, compounds 1 and 2, with X = Br, compounds 5 and 6) was affected by the nature of both the substituents on the imidazolyl ligand and of the halide, showing a small decrease of the UV bands maxima in an hour. By analyzing the spectral data of compounds 1 and 2, a percent concentration reduction of about 4–5% was estimated within an hour, grading them eligible for biological tests. The partial instability may be attributed to the formation of cationic bis-carbeneAuCl2 species (Equation (1)), with the [bis-carbeneAuX2]^+ and the respective AuX2^−; these ions were actually detected as positive and negative ions in the ESI-MS spectra (see Figures S12 and S13). […] Additionally, the (+)ESI MS spectrum of the acetonitrile solution of compound 6 is particularly rich in positive ions (Figure S16). As concerns the mono-/bis-carbene formation, it is likely initiated by the large trans effect of the carbene ligands, which induces the chemical lability on the trans halide, triggers […], the formation of bis-carbeneAu(III) species, and AuX2^− or AuX4^− anions:2[NHC-AuX3] ⇔ [[(NHC)2AuX2] [AuX2^−] + 2X(1) […]
The stability of the samples 1-8 in DMSO solution was assayed by UV-visible spectroscopy. Spectra were acquired using the Shimadzu UV-2700i spectrophotometer, equipped with the Shimadzu CPS-100 Peltier, at 293 K. Unless diversely specified, 100 µM DMSO solutions of the 1-8 compounds were prepared and spectra were acquired each 10 minutes for a total of 60 minutes. The spectra obtained are reported as following.
Figure S19. UV-Visible Spectra acquired for complex 1.
Figure S20. UV-Visible Spectra acquired for complex 2. […]

| SMILES | IC50 [1] [µM] | IC50 [2] [µM] | IC50 [3] [µM] | IC50 [4] [µM] | IC50 [5] [µM] | IC50 [6] [µM] | IC50 [7] [µM] | IC50 [8] [µM] | Mean Diff. TrxR activity vs. veh ([9]; reading at 25 min) [%] | Mean Diff. TrxR activity vs. veh ([9]; reading at 60 min) [%] | Mean Diff. TrxR activity vs. veh ([9]; reading at 90 min) [%] | Mean Diff. TrxR activity vs. veh ([9]; reading at 110 min) [%] | Mean Diff. TrxR activity vs. veh ([10]; reading at 25 min) [%] | Mean Diff. TrxR activity vs. veh ([10]; reading at 60 min) [%] | Mean Diff. TrxR activity vs. veh ([10]; reading at 90 min) [%] | Mean Diff. TrxR activity vs. veh ([10]; reading at 110 min) [%] | stability in solution [11] | TrxR activity reduction / inhibition ([9]; H522, 24 h treatment, stated for both cell lines) | TrxR activity reduction / inhibition ([10]; A549, 24 h treatment, stated for both cell lines) |
| --- | --- | --- | --- | --- | --- | --- | --- | --- | --- | --- | --- | --- | --- | --- | --- | --- | --- | --- | --- |
| Clc1n[c]([Au-][P+](c2ccccc2)(c2ccccc2)c2ccccc2)n(Cc2ccccc2)c1Cl [Compound 7] | 6.5 ± 0.97 | 0.95 ± 1 | 1.8 ± 0.96 | 8.5 ± 1.2 | 16 ± 1.3 | 6.6 ± 1.02 | 12 ± 1.04 | 4 | −57.19 | −91.41 | −90.61 | −89.86 | −59.2 | −44.4 | −56.35 | −53.76 | highest stability in solution |  |  |
| Cn1cc[n+](C)[c]1[Au-2]([Cl])[P+](c1ccccc1)(c1ccccc1)c1ccccc1 [Compound 8] | 3.3 ± 0.93 | 1.1 ± 1.1 | 1.8 ± 1.05 | 17 ± 1.2 | 9.1 ± 1.2 | 13 ± 1.4 | 15 ± 1.1 | 3 | −81.92 | −82.1 | −91.89 | −88.27 | −86.87 | −80.79 | −82.25 | −82.25 | highest stability in solution | more than 80% | more than 80% |
